The values that follow are results of earlier work, collected in paper PMC10583817 (RSC Medicinal Chemistry, 2023).

The subject of this data set is WIN site of WDR5. The note with it: cited from earlier work.

Each structure is given as a SMILES string.

With `Cc1nc(F)ccc1-c1cc(Cn2ccn(C)c2=N)cc(C(=O)NCc2ccc(Cl)c(Cl)c2)c1` [WIN-IN-4], the binding activity result is listed as “sub-nanomole”.
